# Measurements: patent publication US20240025919A1, “AZA-TETRACYCLIC OXAZEPINE COMPOUNDS AND USES THEREOF” (Genentech, Inc., priority 2022, published 2024)
# Key:
# [1] = molecular target: KRAS G12D (Homo sapiens (Human), UniProt P01116, G12D); assay: KRAS G12D LoEnz Biochemical Assay, BODIPY-GDP Exchange TR-FRET (SOS1-mediated nucleotide exchange); details: read-out: KRas (G12D) GDP HTRF IC50
# [2] = molecular target: T1, KRAS WT (Homo sapiens (Human), UniProt P01116); assay: KRAS WT Biochemical Assay, BODIPY-GDP Exchange TR-FRET (Example 502; 0.06 nM KRAS WT, 15 nM GDP, 300 nM SOS1, 120-minute incubation); details: read-out: KRas HTRF IC50
# T1 sequence (P01116-2 other isoform, or with tags, fused parts or gaps): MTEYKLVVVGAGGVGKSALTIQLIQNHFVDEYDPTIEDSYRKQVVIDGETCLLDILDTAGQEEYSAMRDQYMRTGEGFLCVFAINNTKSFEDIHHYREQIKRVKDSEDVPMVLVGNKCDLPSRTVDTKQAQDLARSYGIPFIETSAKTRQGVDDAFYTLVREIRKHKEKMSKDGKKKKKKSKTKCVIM
# How it was run: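 Biotin-tagged recombinant KRAS WT (0.06 nM) preloaded with 15 nM GDP and Tb-streptavidin, 10 min RT, then exchange started with 300 nM SOS1 plus 300 nM BODIPY-GDP in HEPES pH 7.5 buffer with MgCl2. TR-FRET 520/490 ratio read after 120 min; normalized to DMSO and full-inhibition control; IC50 from 4-parameter fit.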
# [3] = molecular target: T1, KRAS WT; assay: KRAS WT Biochemical Assay, BODIPY-GDP Exchange TR-FRET (Example 501; 3 nM KRAS WT, 3 nM SOS1, 60-minute incubation); details: read-out: KRas(wt) GDP HTRF IC50
# How it was run: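 SOS1-mediated exchange assay: 3 nM biotin-KRAS WT with terbium-streptavidin, started with 3 nM SOS1 and 300 nM BODIPY-GDP, HEPES pH 7.5 with MgCl2. TR-FRET (520/490 nm) read after 60 min; normalized to DMSO and full-inhibition control, IC50 from 4-parameter Hill fit.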
# Chain of KRAS G12D (P01116-2 other isoform, or with tags, fused parts or gaps G12D): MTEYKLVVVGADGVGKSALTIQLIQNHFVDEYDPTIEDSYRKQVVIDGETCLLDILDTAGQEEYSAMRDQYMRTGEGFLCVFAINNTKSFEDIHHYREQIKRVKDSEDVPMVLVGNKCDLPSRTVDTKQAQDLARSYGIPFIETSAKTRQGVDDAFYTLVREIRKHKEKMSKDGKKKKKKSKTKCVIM
Structure (SMILES),IC50 [1] [nM],IC50 [2] [nM],IC50 [3] [nM]
"Cc1c(F)c(N)cc(-c2nc3c4c(nc(OC[C@@]56CCCN5C[C@H](F)C6)nc4c2F)N2C[C@H]4CC[C@H](N4)[C@H]2[C@H](C)O3)c1C(F)(F)F [Compound 6, 2-Fluoro-5-((5S,5aS,6S,9R)-1-fluoro-12-(((2R,7aS)-2-fluorotetrahydro-1H-pyrrolizin-7a(5H)-yl)methoxy)-5-methyl-5a,6,7,8,9,10-hexahydro-5H-4-oxa-3,10a,11,13,14-pentaaza-6,9-methanonaphtho[1,8-ab]heptalen-2-yl)-3-methyl-4-(trifluoromethyl)aniline]",0.074,0.548,0.48
"C#Cc1c(F)ccc2cc(O)cc(-c3nc4c5c(nc(OC[C@@]67CCCN6C[C@H](F)C7)nc5c3F)N3C[C@H]5CC[C@H](N5)[C@H]3[C@H](C)O4)c12 [Compound 7, 5-Ethynyl-6-fluoro-4-((5S,5aS,6S,9R)-1-fluoro-12-(((2R,7aS)-2-fluorotetrahydro-1H-pyrrolizin-7a(5H)-yl)methoxy)-5-methyl-5a,6,7,8,9,10-hexahydro-5H-4-oxa-3,10a,11,13,14-pentaaza-6,9-methanonaphtho[1,8-ab]heptalen-2-yl)naphthalen-2-ol]",0.059,0.288,0.296
"Cc1c(F)c(N)cc(-c2nc3c4c(nc(OCC5(CN6C[C@H]7C[C@@H]6CO7)CC5)nc4c2F)N2C[C@H]4CC[C@H](N4)[C@H]2[C@H](C)O3)c1C(F)(F)F [Compound 170, 5-((5S,5aS,6S,9R)-12-((1-(((1R,4R)-2-Oxa-5-azabicyclo[2.2.1]heptan-5-yl)methyl)cyclopropyl)methoxy)-1-fluoro-5-methyl-5a,6,7,8,9,10-hexahydro-5H-4-oxa-3,10a,11,13,14-pentaaza-6,9-methanonaphtho[1,8-ab]heptalene-2-yl)-2-fluoro-3-methyl-4-(trifluoromethyl)aniline]",0.09,2.16,
"Cc1c(F)c(N)cc(-c2nc3c4c(nc(OCC5(CN6CCO[C@H](CF)C6)CC5)nc4c2F)N2C[C@H]4CC[C@H](N4)[C@H]2[C@H](C)O3)c1C(F)(F)F [Compound 171, 2-Fluoro-5-((5S,5aS,6S,9R)-1-fluoro-12-((1-(((S)-2-(fluoromethyl)morpholino)methyl)cyclopropyl)methoxy)-5-methyl-5a,6,7,8,9,10-hexahydro-5H-4-oxa-3,10a,11,13,14-pentaaza-6,9-methanonaphtho[1,8-ab]heptalen-2-yl)-3-methyl-4-(trifluoromethyl)aniline]",0.253,13.7,
"Cc1c(F)c(N)cc(-c2nc3c4c(nc(OCC5(CN6CCO[C@@H](CF)C6)CC5)nc4c2F)N2C[C@H]4CC[C@H](N4)[C@H]2[C@H](C)O3)c1C(F)(F)F [Compound 172, 2-Fluoro-5-((5S,5aS,6S,9R)-1-fluoro-12-((1-(((R)-2-(fluoromethyl)morpholino)methyl)cyclopropyl)methoxy)-5-methyl-5a,6,7,8,9,10-hexahydro-5H-4-oxa-3,10a,11,13,14-pentaaza-6,9-methanonaphtho[1,8-ab]heptalen-2-yl)-3-methyl-4-(trifluoromethyl)aniline]",0.24,11.1,
"Cc1c(F)c(N)cc(-c2nc3c4c(nc(OCC5(CN6CC(F)C6)CC5)nc4c2F)N2C[C@H]4CC[C@H](N4)[C@H]2[C@H](C)O3)c1C(F)(F)F [Compound 173, 2-Fluoro-5-((5S,5aS,6S,9R)-1-fluoro-12-((1-((3-fluoroazetidin-1-yl)methyl)cyclopropyl)methoxy)-5-methyl-5a,6,7,8,9,10-hexahydro-5H-4-oxa-3,10a,11,13,14-pentaaza-6,9-methanonaphtho[1,8-ab]heptalene-2-yl)-3-methyl-4-(trifluoromethyl)aniline]",0.08,5.95,
"Cc1c(F)c(N)cc(-c2nc3c4c(nc(OCC5(CN6CC7(COC7)C6)CC5)nc4c2F)N2C[C@H]4CC[C@H](N4)[C@H]2[C@H](C)O3)c1C(F)(F)F [Compound 174, 5-((5S,5aS,6S,9R)-12-((1-((2-Oxa-azaspiro[3.3]heptan-6-yl)methyl)cyclopropyl)methoxy)-1-fluoro-5-methyl-5a,6,7,8,9,10-hexahydro-5H-4-oxa-3,10a,11,13,14-pentaaza[6,9]methanonaphtho[1,8-ab]heptalene-2-yl)-2-fluoro-3-methyl-4-(trifluoromethyl)aniline]",3.39,3.04,
"Cc1c(F)c(N)c(F)c(-c2nc3c4c(nc(OC[C@@]56CCCN5C[C@H](F)C6)nc4c2F)N2C[C@H]4CC[C@H](N4)[C@H]2[C@H](C)O3)c1CC(F)F [Compound 175, 4-(2,2-Difluoroethyl)-2,6-difluoro-3-((5S,5aS,6S,9R)-1-fluoro-12-(((2R,7aS)-2-fluorotetrahydro-1H-pyrrolizin-7a(5H)-yl)methoxy)-5-methyl-5a,6,7,8,9,10-hexahydro-5H-4-oxa-3,10a,11,13,14-pentaaza-6,9-methanonaphtho[1,8-ab]heptalen-2-yl)-5-methylaniline]",3.39,108,
"Cc1cc2[nH]ncc2c(-c2nc3c4c(nc(OC[C@@]56CCCN5C[C@H](F)C6)nc4c2F)N2C[C@H]4CC[C@H](N4)[C@H]2[C@H](C)O3)c1Cl [Compound 176, (5S,5aS,6S,9R)-2-(5-Chloro-6-methyl-1H-indazol-4-yl)-1-fluoro-12-(((2R,7aS)-2-fluorotetrahydro-1H-pyrrolizin-7a(5H)-yl)methoxy)-5-methyl-5a,6,7,8,9,10-hexahydro-5H-4-oxa-3,10a,11,13,14-pentaaza-6,9-methanonaphtho[1,8-ab]heptalene]",2.8,809,
"Cc1cc(-c2nc3c4c(nc(OC[C@@]56CCCN5C[C@H](F)C6)nc4c2F)N2C[C@H]4CC[C@H](N4)[C@H]2[C@H](C)O3)c(F)c(N)n1 [Compound 177, 3-Fluoro-4-((5S,5aS,6S,9R)-1-fluoro-12-(((2R,7aS)-2-fluorotetrahydro-1H-pyrrolizin-7°(5H)-yl)methoxy)-5-methyl-5°,6,7,8,9,10-hexahydro-5H-4-oxa-3,10°,11,13,14-pentaaza-6,9-methanonaphtho[1,8-ab]heptalen-2-yl)-6-methylpyridin-2-amine]",126,11700,
"CCc1cccc2nc(N)cc(-c3nc4c5c(nc(OC[C@@]67CCCN6C[C@H](F)C7)nc5c3F)N3C[C@H]5CC[C@H](N5)[C@H]3[C@H](C)O4)c12 [Compound 179, 5-Ethyl-4-((5S,5aS,6S,9R)-1-fluoro-12-(((2R,7aS)-2-fluorotetrahydro-1H-pyrrolizin-7a(5H)-yl)methoxy)-5-methyl-5a,6,7,8,9,10-hexahydro-5H-4-oxa-3,10a,11,13,14-pentaaza-6,9-methanonaphtho[1,8-ab]heptalene-2-yl)quinolin-2-amine]",6.64,659,
"Cc1c(F)c(N)cc(-c2nc3c4c(nc(OC[C@@]56CCCN5C[C@H](F)C6)nc4c2F)N2C[C@H]4CC[C@H](N4)[C@H]2[C@H](C)O3)c1S(C)(=O)=O [Compound 180, 2-Fluoro-5-((5S,5aS,6S,9R)-1-fluoro-12-(((2R,7aS)-2-fluorotetrahydro-1H-pyrrolizin-7a(5H)-yl)methoxy)-5-methyl-5a,6,7,8,9,10-hexahydro-5H-4-oxa-3,10a,11,13,14-pentaaza-6,9-methanonaphtho[1,8-ab]heptalene-2-yl)-3-methyl-4-(methylsulfonyl)aniline]",17.4,2740,
